Reference: PubChem BioAssay AID179 (DTP/NCI, 2004)
Calls of active or inactive are those of the source.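 Rule for the calls: active = compounds giving half or more protection of infected cells from virus-caused growth loss, again on retest; inactive = the rest.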

System: CEM cells HIV-1 protection, formazan growth assay
Experiment: NCI AIDS Antiviral Assay
Settings: for IC50: measured here: growth of uninfected CEM cells
Outline: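 Protection of CEM cells against HIV-1 measured as cell growth via soluble formazan read-out, with five concentrations tested on both infected and uninfected cells; failure to protect may reflect toxicity.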

| SMILES | EC50 | IC50 | outcome |
| --- | --- | --- | --- |
| CC(C)=CCC/C(C)=C/CCC1(C)C2COC(=O)C21 (stereo unspecified) | > 200 µM | 46.8 µM | – |
| COC(=O)C1CCC(=O)N1C(c1ccc2c(c1)OCO2)c1cc(OC)c(OC)c(OC)c1 (stereo unspecified) | > 200 µM | > 200 µM | – |
| COc1ccc(-n2c(=O)[nH]n(C(C)=O)c2=O)cc1 | > 200 µM | > 200 µM | – |
| COc1cc2c(nn1)CCCC2 | – | – | inactive |
| COc1ccc(N2C(=O)CC(C3CC(C(C)(C)C)CCC3=O)C2=O)cc1 (stereo unspecified) | > 200 µM | > 200 µM | – |
| CN1CCC2(CC1)OCCN2CCO | > 1260 µM | > 1260 µM | – |
| COc1ccc2c(c1)C(C(=O)O)CC(=O)N2C (stereo unspecified) | > 200 µM | > 200 µM | – |
| CC1=C[C@H]2O[C@H]3C[C@H]4OC(=O)/C=C\C=C\C(=O)OCC[C@@H](C)C(O)C(=O)OC[C@@]2(CC1)[C@@]4(C)[C@]31CO1 (stereo partly specified) | > 0.363 µM | 0.0112 µM | – |
| Cc1nnc(NS(=O)(=O)c2ccc(NC(=O)c3ccccc3SC(=O)CCCC[n+]3ccccc3)cc2)s1 | 51.3 µM | 55 µM | – |
| Cc1ccc(/C(O)=C/c2nc3ccccc3oc2=O)cc1 | > 200 µM | 55 µM | – |
| COC1CC2C=C(C)/C=C/C=C/C(=O)NC(c3ccccc3)C/C=C/CCC(O)CC(=O)C2=C1O (stereo unspecified) | > 20.9 µM | 0.562 µM | – |
| COC(=O)c1ccc(/C=C/S(=O)(=O)c2ccccc2)cc1 | > 4.79 µM | > 4.79 µM | – |
| Nc1ncc(C[P+](c2ccccc2)(c2ccccc2)c2ccccc2)c(N)n1 | > 200 µM | > 200 µM | – |
| CC(=O)NNC(=S)/N=C/C(C(=O)Nc1ccc([N+](=O)[O-])cc1)=C(\C)O | 117 µM | 170 µM | – |
| CCCOCN1COCN=C1NC#N | > 447 µM | 417 µM | – |
| COC(=O)c1sc(C(=O)OC)c2c1CSC2 | – | – | inactive |
| COc1cc(C(=O)Oc2c(C(C)=O)sc3c2c(=O)n(-c2ccccc2)c(=S)n3-c2ccccc2)cc(OC)c1OC | > 200 µM | 1.1 µM | – |
| COCCOCCOCCOCCOCCOCCOCCOCCOCCOCCOCCOCCOCCOCCOCCOCCOCC(=O)N(CCn1ccc(NC(c2ccccc2)(c2ccccc2)c2ccccc2)nc1=O)CCn1ccc(NC(c2ccccc2)(c2ccccc2)c2ccccc2)nc1=O | 20 µM | 22.9 µM | – |
| CC1(C)C[C@H](O)[C@H](O)[C@]23C(=O)O[C@H](O)[C@H]2C(C=O)=CC[C@@H]13 | > 200 µM | > 200 µM | – |
| Cc1c([N+](=O)[O-])oc2c1C(=O)N([N+](=O)[O-])CCC2 | > 89.1 µM | > 89.1 µM | – |
| NCc1ccccc1C1CSCSC1 | > 575 µM | 288 µM | – |

| SMILES | EC50 | IC50 | outcome |
| --- | --- | --- | --- |
| N/N=C(\CCN1CCCC1)CC(c1ccccc1)c1c(O)c2ccccc2oc1=O (stereo unspecified) | > 58.9 µM | > 58.9 µM | – |
| COC(=O)Cc1nc2ccccc2o1 | > 1290 µM | 33.9 µM | – |
| Clc1ccc(CCn2cncn2)c(Cl)c1 | > 891 µM | 437 µM | – |
| CCC[CH2][Sn]1([CH2]CCC)[O]CC(CN2CCCC2)[O]1 (stereo unspecified) | > 34.7 µM | – | – |
| Cc1cc(S(=O)(=O)NC(=NCC(=O)NN)NN)c(S)cc1Cl | > 200 µM | 34.7 µM | – |
| CCCNC(=S)N/N=C/c1cccc(C)n1 | > 200 µM | 11 µM | – |
| Cc1nc2cccc(F)c2c(=O)n1-c1nnc(C2CC2)s1 | > 200 µM | > 200 µM | – |
| Cc1[nH]c2ccccc2c1CC/C(=N\Nc1ccccc1)c1ccccc1 | – | – | inactive |
| COc1cc(C(O)CCBr)c(OC)cc1C (stereo unspecified) | > 200 µM | 2.29 µM | – |
| O=C1C2c3[nH]c4ccccc4c3C3CCCC3C2C(=O)N1c1ccccc1 (stereo unspecified) | – | – | inactive |
| CCCCCCC(=O)C/C(CCC(=O)N(Cc1ccccc1)Cc1ccccc1)=N\Nc1ccc([N+](=O)[O-])cc1[N+](=O)[O-] | > 12.3 µM | > 12.3 µM | – |
| CCC[CH2][Sn]([CH2]CCC)([O]C(=O)c1cc(F)ccc1F)[O][Sn]([CH2]CCC)([CH2]CCC)[O]C(=O)c1cc(F)ccc1F | > 9.12 µM | 1.74 µM | – |
| CCN1C(=O)C(=C/C=C/C=C2/N(C)c3ccccc3C2(C)C)C(=O)N(CC)C1=S | > 200 µM | 18.6 µM | – |
| O=C1C2=C(c3ccccc31)C(c1ccc(Cl)cc1)N1C(=O)CCSC1=N2 (stereo unspecified) | > 49 µM | > 49 µM | – |
| COc1ccc(N=Nc2c(C)c(C#N)c(=S)n(C3OC(CO)C(O)C(O)C3O)c2-c2ccccc2)cc1 (stereo unspecified) | > 200 µM | 28.2 µM | – |
| CC[C@@]12CCC(=S)N(CCSc3ccccc3)[C@@H]1c1c(n(S(=O)(=O)c3ccc(OC)cc3)c3ccccc13)CC2 | > 200 µM | > 200 µM | – |
| CCOC(=O)Nc1cc(Nc2ccc(Cl)cc2)c2nc(-c3ccc(Cl)cc3)c(-c3ccc(Cl)cc3)nc2n1 | > 37.2 µM | > 37.2 µM | – |
| Cc1ccc(-c2ccc(Nc3c4ccccc4nc4ccccc34)cc2)cn1 | > 200 µM | 2.69 µM | – |
| O=[N+]([O-])c1cccc2nc3ccccc3c(NCCC[N+]3([O-])CCOCC3)c12 | > 2 µM | 0.105 µM | – |
| CCC1C(=O)OCc2c1cc1n(c2=O)CCC12OCCO2 (stereo unspecified) | > 851 µM | > 851 µM | – |
| CCC(=O)[O][Bi]([c]1ccccc1)[c]1ccccc1 | > 30.9 µM | 5.89 µM | – |

| SMILES | EC50 | IC50 | outcome |
| --- | --- | --- | --- |
| CS(=O)(=O)Nc1ccc2ccccc2c1-c1c(NS(C)(=O)=O)ccc2ccccc12 | > 50.1 µM | 47.9 µM | – |
| CC1(C)OCC(C2OC(OC(=O)c3ccc(C(F)(F)F)cc3)C3OC(C)(C)OC23)O1 (stereo unspecified) | – | – | inactive |
| O=C1OC(c2ccccc2)=N/C1=C\c1cc(Cl)ccc1Cl | > 6.31 µM | > 6.31 µM | – |
| CC1(C)OC(CCC#N)CN1C(=O)OCc1ccccc1 (stereo unspecified) | > 200 µM | 135 µM | – |
| C1COCCSC2=C(SCCO1)SC(=C1SC3=C(SCCOCCOCCS3)S1)S2 | > 17.8 µM | > 17.8 µM | – |
| O=P1(Oc2ccccc2)C(c2ccccc2)C(c2ccccc2)=NN1c1ccccc1 (stereo unspecified) | > 12.3 µM | > 12.3 µM | – |
| CCOc1cnc(C(O)(c2ccccc2)c2ccccc2)o1 | 19.1 µM | 148 µM | – |
| COc1ccc(C2CN(C(=O)c3ccccc3)N=C(c3ccccc3)O2)cc1 (stereo unspecified) | > 17 µM | > 17 µM | – |
| Cc1ccc(S(=O)Cc2ccc(C(=O)O)cc2[N+](=O)[O-])cc1 (stereo unspecified) | – | – | inactive |
| O=C1c2nc3n(c2C(=O)c2c1nc1n2CCC1)CCC3 | > 200 µM | 3.72 µM | – |
| CCOC(=N)CNC(=O)c1ccccc1 | > 200 µM | > 200 µM | – |
| C=C(O)c1ccccc1C#Cc1ccccc1C(=O)OC | > 200 µM | > 100 µM | – |
| CC(CN(C)C)Nc1c2ccccc2nc2cccc([N+](=O)[O-])c12 (stereo unspecified) | > 2 µM | 0.977 µM | – |
| Cc1cc2c(C)c(-c3ccccc3)c(=O)oc2c(C#N)c1C | > 200 µM | 170 µM | – |
| O=C1OCC2C1C1c3ccccc3C(O)c3ccccc3C21 (stereo unspecified) | – | – | inactive |
| OCC1CCCCCCCCCCC12SCCCS2 (stereo unspecified) | > 200 µM | 120 µM | – |
| O=C(c1nc2ccc(Cl)cc2[nH]c1=O)C(O)c1ccc2c(c1)OCO2 (stereo unspecified) | > 501 µM | 24.5 µM | – |
| CCOC(=O)NN(CCOS(=O)(=O)c1ccc(C)cc1)CCOS(=O)(=O)c1ccc(C)cc1 | > 200 µM | 120 µM | – |
| O=S1(=O)OC(c2cc(Br)c(O)c(Br)c2)(c2cc(Br)c(O)c(Br)c2)c2c(Br)c(Br)c(Br)c(Br)c21 | – | – | inactive |
| O=C1OC(CS(=O)(=O)c2ccccc2)CC1O (stereo unspecified) | > 200 µM | > 200 µM | – |
| Oc1ccc2c(c1)OCC1c3cc4c(cc3OC21)OCO4 (stereo unspecified) | – | – | inactive |
